Data from patent US4203986A, “M-Trifluoro-methylphenyl-piperazine” (Metabio-Joullie, priority 1977, dated 1980).
Where two headings read alike, the source gives them in different places.

How the values were obtained:
[1] = Acute toxicity in Mice; assay type: in vivo, mice (SWISS, EOPS, NMRI/Han, female); details: for LD50 at 360 h / MTD at 360 h: mouse, in vivo; for LD50 at 360 h / LD 50: method of KARBER and BEHRENS; for MTD at 360 h: read-out: LD 0 (maximum dose tolerated); for LD 0 (maximum dose tolerated) / LD 50: 21600 min
Description: The compounds are administered in increasing doses (in arithmetic progression) to groups of five .female. SWISS, EOPS, NMRI/Han mice of the EVIC CEBA strain and having a mean weight of 22 g.
For intravenous administration the compounds are dissolved in distilled water, for oral administration they are suspended in 10% gum arabic solution (volume administered: 0.5 ml/22 g body weight).
The LD 50's are calculated according to the method of KARBER and BEHRENS (B.) (Arch. Exp. Path. Pharmakol. 1935, 177, 379-388).
For each administration method, there is indicated:
LD 0 or maximum dose tolerated.
LD 100 or minimum lethal dose.
The number of animals surviving in the different groups is definitively verified 15 days after administrating the compounds.

[2] = tested on: coughing induced by aqueous citric acid aerosol; assay: Antitussive action in the guinea pig (citric acid aerosol); assay type: in vivo; details: for inhibition in vivo at 22 mg/kg: 22 mg/kg p.o.; for antitussive activity (in words): oral
Excerpt: The technique used is that of SIECKMANN (W.) (in "Notions techniques de Pharmacologie generale" by Michel COLOT, page 75, Masson, Edit, 1972).
The guinea pigs .female. of mean weight 400 g, unanaesthesised, are subjected to the tussigenic effect of aerosols of a 7.5% aqueous citric acid solution. The animals are placed one by one in a cylindrical chamber having at its two extremities two canals, one serving as entrance for the aerosol and the other as its exit.
On the exit tube there is a lateral connection to a MERCURY gas pressure differential gauge joined to an RACIA counter. An adjustable screw clamp placed on the exit tube downstream of the lateral canal permits regulation of the sensitivity of the system such that the normal respiration of the animal only registers very weakly and that displacement of air in the chamber provoked by coughing attack is recorded clearly in the form of vertical traces.
Each guinea pig is first submitted to a control test for 5 minutes. One hour later it receives the test compound. It is replaced in the chamber for 5 minutes, 1 hour after oral administration of the compound.
The number of coughing attacks before and after administration is counted and the percentage inhibition is calculated.

[3] = Test on the cataleptic action in rats; assay type: in vivo; details: p.o., every 30 minutes for 6 hours
Description: (7) Test on the cataleptic action in rats (groups of 5 animals)
After administration p.o. of the test compounds, the degree of catalepsy is noted every 30 minutes for 6 hours by the test of crossing of the homolateral feet according to BOISSIER (J.R.) and SIMON (P.) (Therapy, 1963, 18, 1257-1277) and using the following notation:
0=animal which is not cataleptic
132 animal conserving position on one side only
2=animal conserving position on both sides

[4] = tested on: coughing by stimulation of the superior larynx nerve; assay: Antitussive action in the cat (stimulation of the superior larynx nerve); assay type: in vivo; details: for effect on coughing in cats (in words): i.v.
Description: The cats all thriving, male or female of weight between 1.5 and 2.5 kg (test on 10 cats) are anaesthesised by nembutal at a dose of 30 mg/kg interperitoneally.
A cannula having three branches is placed in the trachea. Two of the branches are connected to a device for registering intratracheal pressure (MERCURY gas pressure gauge connected to an RACIA polygraph) The third branch allows elimination of part of the respiratory volume.
A cannula is placed in the femoral vein for administration of the test substances.
The stimulation parameters are as follows: frequency: 5 cycles per sec, amplitude: 5 millisec, voltage: 4 to 6 volts, duration: 15 to 45 sec. (according to the sensitivity of the animal).
There are carried a minimum of 3 stimulations spaced by 5 minutes and provoking coughing attacks of the same severity. The compound is then administered intravenously. The stimulation is then carried out every 5 minutes. If the compound reduces or suppresses the coughing the stimulation is continued until the reappearance of coughing to approximately the same degree as the initial coughing.
The results are expressed as a percentage reduction in the number of coughs.

[5] = Cavia porcellus, po, 1 h, read-out: Percentages of inhibition of coughing

Compound	LD 100 (minimum lethal dose) ([1]; intravenous administration)	LD50 at 360 h ([1]; iv, intravenous administration)	MTD at 360 h ([1]; iv, intravenous administration)	LD50 at 360 h ([1]; po, oral administration)	MTD at 360 h ([1]; po, oral administration)	LD 100 (minimum lethal dose) ([1]; oral administration)	also measured
OCC(O)CN1CCN(c2cccc(C(F)(F)F)c2)CC1 (stereo not drawn) [LJ 1142, 3-[4-(m-Trifluoromethylphenyl)-piperazino]-propane-1,2-diol]	300 mg/kg	252 mg/kg	225 mg/kg	1120 mg/kg	750 mg/kg	1500 mg/kg	–
O=C1CCCCCC1CN1CCN(c2cccc(C(F)(F)F)c2)CC1 (stereo not drawn) [LJ 1176, 2-[4-(m-Trifluoromethylphenyl)-piperazino]-methyl-cycloheptanone]	–	–	–	1950 mg/kg	1500 mg/kg	2500 mg/kg	inhibition in vivo at 200 mg/kg ([2]; Cavia porcellus, po, 1 h, 200 mg/kg p.o., read-out: Percentages of inhibition of coughing): 78%; cataleptic effect [3]: absence of cataleptic effect
OC(CN1CCN(c2cccc(C(F)(F)F)c2)CC1)CN1CCN(c2cccc(C(F)(F)F)c2)CC1 [LJ 1145, 1,3-bis[4-(m-Trifluoromethylphenyl)-piperazino]-propan-2-ol]	–	–	–	–	–	1000 mg/kg	LD 0 (maximum dose tolerated) ([1]; oral administration): 200 mg/kg; LD 50 ([1]; oral administration): 580 mg/kg; inhibition in vivo at 58 mg/kg ([2]; Cavia porcellus, po, 1 h, 58 mg/kg p.o., read-out: Percentages of inhibition of coughing): 58%
OC(CN1CCN(c2ccc(F)c(C(F)(F)F)c2)CC1)CN1CCN(c2ccc(F)c(C(F)(F)F)c2)CC1 [LJ 1198, 1,3-bis[4-(3-Trifluoromethyl-4-fluorophenyl)-piperazino)-propan-2-ol]	–	–	–	225 mg/kg	50 mg/kg	400 mg/kg	inhibition in vivo at 22 mg/kg [2, 5]: 50%
O=C1CCCCC1CN1CCN(c2ccc(F)c(C(F)(F)F)c2)CC1 (stereo not drawn) [LJ 1196, 2-[4-(3-Trifluoromethyl-4-fluorophenyl)-piperazino]-methyl-cyclohexanone]	–	–	–	937 mg/kg	625 mg/kg	1250 mg/kg	–
OCC(O)CN1CCN(c2ccc(F)c(C(F)(F)F)c2)CC1 (stereo not drawn) [LJ 1121, 3-[4-(3-Trifluoromethyl-4-fluorophenyl)-piperazino]propane-1,2-diol]	–	–	–	925 mg/kg	500 mg/kg	1250 mg/kg	–
OCCN1CCN(c2ccc(F)c(C(F)(F)F)c2)CC1 [LJ 1195, 2-[4-(3-Trifluoromethyl-4-fluorophenyl)-piperazino]-ethanol]	–	–	–	844 mg/kg	300 mg/kg	1250 mg/kg	–
O=C(CN1CCN(c2cccc(C(F)(F)F)c2)CC1)CN1CCN(c2cccc(C(F)(F)F)c2)CC1 [LJ 1163]	22.5 mg/kg	18 mg/kg	12.5 mg/kg	180 mg/kg	125 mg/kg	250 mg/kg	% maximum reduction in the number of coughs ([4]; 1.8 mg/kg i.v.): 50%; Delay in the disappearance of protective effect ([4]; 1.8 mg/kg i.v.): Fleeting; % maximum reduction in the number of coughs ([4]; 3.6 mg/kg i.v.): 62%; inhibition in vivo at 9 mg/kg ([2]; Cavia porcellus, po, 1 h, 9 mg/kg p.o., read-out: Percentages of inhibition of coughing): 64%; inhibition in vivo at 18 mg/kg ([2]; Cavia porcellus, po, 1 h, 18 mg/kg p.o., read-out: Percentages of inhibition of coughing): 78%; antitussive activity (in words) [2]: also active if not more active than codeine
OC1CCCCC1CN1CCN(c2cccc(C(F)(F)F)c2)CC1 (stereo not drawn) [LJ 1161, 2-[4-(m-Trifluoromethylphenyl)-piperazino]-methyl-cyclohexanol]	87.5 mg/kg	66 mg/kg	50 mg/kg	1500 mg/kg	750 mg/kg	2000 mg/kg	inhibition in vivo at 150 mg/kg ([2]; Cavia porcellus, po, 1 h, 150 mg/kg p.o., read-out: Percentages of inhibition of coughing): 75%; cataleptic effect [3]: absence of cataleptic effect
OC1CCCCC1N1CCN(c2cccc(C(F)(F)F)c2)CC1 (stereo not drawn) [LJ 1143, 2-[4-(m-Trifluoromethylphenyl)-piperazino]-cyclohexanol]	81 mg/kg	69 mg/kg	56 mg/kg	625 mg/kg	250 mg/kg	1000 mg/kg	–
OC(CN1CCN(c2cccc(C(F)(F)F)c2)CC1)CN1CCN(c2cccc(C(F)(F)F)c2)CC1 [LJ 1152, 1,3-bis[4-(m-Trifluoromethylphenyl)-piperazino]-propan-2-ol]	50 mg/kg	36 mg/kg	25 mg/kg	–	–	375 mg/kg	LD 0 (maximum dose tolerated) ([1]; oral administration): 125 mg/kg; LD 50 ([1]; oral administration): 225 mg/kg; % maximum reduction in the number of coughs ([4]; 3.6 mg/kg i.v.): 76%; % maximum reduction in the number of coughs ([4]; 7.2 mg/kg i.v.): 100%; effect on coughing in cats (in words) [4]: comparable with those of codeine; inhibition in vivo at 22 mg/kg [2, 5]: 64%; inhibition in vivo at 72 mg/kg ([2]; Cavia porcellus, po, 1 h, 72 mg/kg p.o., read-out: Percentages of inhibition of coughing): 75%; antitussive activity (in words) [2]: also active if not more active than codeine
COc1ccc2c3c1O[C@H]1[C@@H](O)C=C[C@H]4[C@@H](C2)N(C)CC[C@@]341 [Codeine, reference compound]	–	–	–	–	–	–	% maximum reduction in the number of coughs ([4]; 3.5 mg/kg i.v.): 100%; inhibition in vivo at 35 mg/kg ([2]; Cavia porcellus, po, 1 h, 35 mg/kg p.o., read-out: Percentages of inhibition of coughing): 64%; inhibition in vivo at 70 mg/kg ([2]; Cavia porcellus, po, 1 h, 70 mg/kg p.o., read-out: Percentages of inhibition of coughing): 71%
OC(CN1CCN(c2cccc(C(F)(F)F)c2)CC1)CN1CCN(c2cccc(C(F)(F)F)c2)CC1 [LJ 1154, 1,3-bis[4-(m-Trifluoromethylphenyl)-piperazino]-propan-2-ol]	44 mg/kg	–	–	–	–	200 mg/kg	LD 0 (maximum dose tolerated) ([1]; intravenous administration): 25 mg/kg; LD 50 ([1]; intravenous administration): 37.5 mg/kg; LD 0 (maximum dose tolerated) ([1]; oral administration): 50 mg/kg; LD 50 ([1]; oral administration): 135 mg/kg; % maximum reduction in the number of coughs ([4]; 4 mg/kg i.v.): 80%; % maximum reduction in the number of coughs ([4]; 8 mg/kg i.v.): 100%; effect on coughing in cats (in words) [4]: comparable with those of codeine; inhibition in vivo at 6.75 mg/kg ([2]; Cavia porcellus, po, 1 h, 6.75 mg/kg p.o., read-out: Percentages of inhibition of coughing): 66%; inhibition in vivo at 13.5 mg/kg ([2]; Cavia porcellus, po, 1 h, 13.5 mg/kg p.o., read-out: Percentages of inhibition of coughing): 78%; antitussive activity (in words) [2]: also active if not more active than codeine
